{
  "source": "patent US10738067B2",
  "about": "“Inhibitors of cyclin-dependent kinase 7 (CDK7)” (Syros Pharmaceuticals, Inc., priority 2018, dated 2020)",
  "key": {"HCC70 cells": {"test_system": "HCC70 cells", "experiment": "HCC70 cell proliferation assay (CyQUANT Direct, 72 hours)", "format": "cell-based", "conditions": "Homo sapiens, inhibition of proliferation", "protocol": "The HCC70 cell line was derived from human TNBC, and we tested representative compounds of the invention, at different concentrations (from 4 μM to 126.4 pM; 0.5 log serial dilutions), for their ability to inhibit the proliferation of those cells. More specifically, we tested the same compounds tested above for CDK7 selectivity (the structures of which are shown in FIG. 1), and we used the known CDK inhibitors dinaciclib (or […]) and triptolide as positive controls. The cells were grown in ATCC-formulated RPMI-1640 medium (ATCC 30-2001) supplemented with 10% fetal bovine serum (FBS), at 37° C. in a humidified chamber in the presence of 5% CO2. We conducted proliferation assays over a 72-hour time period using a CyQUANT® Direct Cell Proliferation Assay (Life Technologies, Chicago, Ill. USA) according to the manufacturer's directions and utilizing the reagents supplied with the kit."}, "[1]": {"test_system": "palbociclib-resistant ER+BC PDX (ST1799)", "experiment": "Tumor growth inhibition in palbociclib-resistant ER+BC PDX model ST1799", "format": "in vivo, Mice", "conditions": "last day of 28 days dosing, Compound 101 6 mg/kg QD PO, fulvestrant 2.5 mg/kg once weekly SC, palbociclib 50 mpk QD PO", "protocol": "(§1) Tumor growth inhibition was evaluated in estrogen receptor-positive breast cancer (ER+BC) PDX models selected in vivo for resistance to the CDK4/6 inhibitor palbociclib (ST1799, n=1) or resistance to both palbociclib and fulvestrant (ST941, n=1). Dosing was initiated when tumors were 100-200 mm^3."}, "[2]": {"test_system": "palbociclib and fulvestrant double-resistant ER+BC PDX model (ST941)", "experiment": "Tumor growth inhibition in palbociclib and fulvestrant double-resistant ER+BC PDX model ST941", "format": "in vivo, Mice", "conditions": "fulvestrant 2.5 mg/kg once weekly SC; for anti-tumor activity (in words): palbociclib 50 mpk QD PO", "protocol": "as §1"}, "[3]": {"test_system": "ST390 (modeling pancreatic ductal adenocarcinoma (PDAC))", "experiment": "Tumor growth inhibition in PDAC PDX model ST390", "format": "in vivo, NOD/SCID mice", "description": "(§2) In the TNBC model, Compound 101 was orally administered to tumor-bearing NOD/SCID mice at 10 mg/kg QD or 5 mg/kg BID for 21 days. In the SCLC and HGSOC models, Compound 101 was orally administered to tumor-bearing NOD/SCID mice at 3 mg/kg BID for 21 days. In the PDAC model, Compound 101 was orally administered to tumor-bearing NOD/SCID mice at 6 mg/kg QD. In the TNBC, SCLC, and HGSOC models, tumor volume was measured during the treatment period and for an additional 21 days after treatment ceased. […] The % regression was calculated as: (Mean TV Compound 101 @ EOT)/(Mean TV Compound 101 @Day 0)×100. The same calculations were used for end of study (day 42)."}, "[4]": {"test_system": "PDX models BR5010 (TNBC), LU5178 (SCLC), OV15398 (HGSOC)", "experiment": "Tumor growth inhibition in TNBC, SCLC and HGSOC PDX models", "format": "in vivo, NOD/SCID mice"}, "[5]": {"test_system": "12 PDX models representing SCLC, TNBC and HGSOC", "experiment": "Tumor growth inhibition in 12 PDX models (SCLC, TNBC, HGSOC)", "format": "in vivo, Mice", "description": "We evaluated TGI in 12 different PDX models (Crown Biosciences) in various tumor indications with PDXs representing SCLC (n=5; LU5180, LU5178, LU5192, LU5173, LU5210), TNBC (n=4; BR5010, BR1458, BR5399, BR10014) and HGSOC (n=3; OV15398, OV5392, OV15631). Dosing was initiated when tumors were 150-300 mm^3. […] TGI was calculated on the last day of dosing using the formula: TGI=(Vc1−Vt1)/(Vc0−Vt0), where Vc1 and Vt1 are the mean volumes of control and treated groups at the time of tumor extraction, while Vc0 and Vt0 are the same groups at the start of dosing."}, "in vivo": {"experiment": "in vivo", "conditions": "NOD/SCID, mouse, oral", "description": "as §2\n(§3) Dosing was initiated when tumors were 150-300 mm^3. Mice were treated with either Compound 101, QD (6 or 10 mg/kg once daily, by mouth) or BID (3 or 5 mg/kg twice daily, by mouth) over the course of 21 days, followed by 21 days of observation. TGI was calculated on the last day of dosing using the formula: TGI=(Vc1−Vt1)/(Vc0−Vt0), where Vc1 and Vt1 are the mean volumes of control and treated groups at the time of tumor extraction, while Vc0 and Vt0 are the same groups at the start of dosing."}, "[6]": {"experiment": "Tolerability in tumor-bearing mice (PDX studies)", "conditions": "all once-daily doses tested", "description": "as §2, §3"}},
  "note": "pEC50: −log10 of the molar value.",
  "data": [
    {"smiles": "CC1(C)CNC[C@@H](Nc2ncc(C(F)(F)F)c(-c3c[nH]c4c(P(C)(C)=O)c(C#N)ccc34)n2)C1", "note": "[Compound 102, (S)-7-(dimethylphosphoryl)-3-(2-((5,5-dimethylpiperidin-3-yl)amino)-5-(trifluoromethyl)pyrimidin-4-yl)-1H-indole-6-carbonitrile]", "values": [
      {"measurement": "pEC50", "setting": "HCC70 cells", "value": 8.68}
    ]},
    {"smiles": "CC(=O)c1c(C)c2cnc(Nc3ccc(N4CCNCC4)cn3)nc2n(C2CCCC2)c1=O", "note": "[palbociclib]", "values": [
      {"measurement": "Tumor growth inhibition (TGI)", "setting": "[1]", "value": 21, "unit": "%"},
      {"measurement": "anti-tumor activity (in words)", "setting": "[2]", "value": "no activity"}
    ]},
    {"smiles": "CC1(C)CC[C@H](Nc2ncc(C(F)(F)F)c(-c3c[nH]c4c(P(C)(C)=O)c(C#N)ccc34)n2)CN1", "note": "[Compound 101, (S)-7-(dimethylphosphoryl)-3-(2-((6,6-dimethylpiperidin-3-yl)amino)-5-(trifluoromethyl)pyrimidin-4-yl)-1H-indole-6-carbonitrile]", "values": [
      {"measurement": "pEC50", "setting": "HCC70 cells", "value": 8.25},
      {"measurement": "Tumor growth inhibition (TGI)", "setting": "[1]", "value": 83, "unit": "%"},
      {"measurement": "Tumor growth inhibition (TGI)", "setting": "[2]; last day of 28 days dosing, Compound 101 6 mg/kg QD PO", "value": 33, "unit": "%"},
      {"measurement": "Tumor growth inhibition (TGI)", "setting": "[3]; 6 mg/kg QD PO, over ~28 days, sub-MTD dose", "value": 100, "unit": "%"},
      {"measurement": "tumor volume", "setting": "[3]; day 21, 6 mg/kg QD, PO", "value": "about 250 mm^3"},
      {"measurement": "TGI (in words)", "setting": "[4]; TNBC 10 mg/kg QD or 5 mg/kg BID, SCLC and HGSOC 3 mg/kg BID, oral, 21 days, plus 21 days observation", "value": "deep and sustained TGI, including regressions"},
      {"measurement": "transcriptional responses in xenograft tissue", "setting": "[4]; observed within 4 hours of dosing, sustained for 24 hours", "value": "Dose-dependent transcriptional responses"},
      {"measurement": "TGI at the end of the 21-day dosing period", "setting": "[5]; all 12 PDX models, 6 or 10 mg/kg QD or 3 or 5 mg/kg BID, by mouth", "value": "at least 50%"},
      {"measurement": "tumor regrowth after treatment discontinuation", "setting": "[5]; subset of models (7/12), 21 days after treatment discontinuation", "value": "no evidence of tumor regrowth"},
      {"measurement": "TGI of deep responses (TGI or regression)", "setting": "[5]; subset of models (58%, 7/12)", "value": "> 95", "unit": "%"},
      {"measurement": "MTD at 21 days", "setting": "in vivo", "value": "> 10", "unit": "mg/kg"},
      {"measurement": "body weight loss (tolerability)", "setting": "[6]", "value": "no evident body weight loss"}
    ]},
    {"smiles": "C[C@]12CC[C@@H]3c4ccc(O)cc4C[C@@H](CCCCCCCCC[S+]([O-])CCCC(F)(F)C(F)(F)F)[C@H]3[C@@H]1CC[C@@H]2O", "note": "(stereo partly drawn) [fulvestrant]", "values": [
      {"measurement": "Tumor growth inhibition (TGI)", "setting": "[1]", "value": 60, "unit": "%"},
      {"measurement": "anti-tumor activity (in words)", "setting": "[2]", "value": "no activity"}
    ]},
    {"smiles": "C[C@H]1CC[C@H](Nc2ncc(C(F)(F)F)c(-c3c[nH]c4c(P(C)(C)=O)c(C#N)ccc34)n2)CN1", "note": "[Compound 100, 7-dimethylphosphoryl-3-[2-[[(3S, 6S)-6-methyl-3-piper-idyl]amino]-5-(trifluoromethyl)pyrimidin-4-yl]-1H-indole-6-carbonitrile]", "values": [
      {"measurement": "pEC50", "setting": "HCC70 cells", "value": 9.01}
    ]}
  ]
}
